Laboratory results from the supplement of paper PMC10307832.

Legend:
Test in all cases: relative viability (nuclei count vs DMSO), 5 days (fraction); higher = more cells survive
[1] = compound: CC1=CC(=C(N1C2=CC=C(C=C2)Cl)C)C(=O)CN3CCCCC3 [IU1-47] + COc1cccc2cc(-c3nc([C@H]4CC[C@H](C(=O)O)CC4)n4ncnc(N)c34)[nH]c12 [OSI-027] (partner 0.5 µM)
Summary of the method: (§1)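 Lung cancer cell lines, seeded in 1536-well plates, were treated the following day by pin tool with a single drug or with five library-drug doses (not always all listed) in √10 steps on top of a fixed anchor-drug dose. Cells were fixed and nuclei stained in one step after 5 days, and nuclei were counted. Relative viability is the nuclei count for treated wells divided by that for vehicle wells, reported as medians of duplicate plates.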

[2] = compound: CC1=CC(=C(N1C2=CC=C(C=C2)Cl)C)C(=O)CN3CCCCC3 [IU1-47] + O=C(CCCCCCC(=O)Nc1ccccc1)NO [Vorinostat] (partner 1 µM)
Summary of the method: as §1

[3] = compound: Cc1nc(C(=O)NCC(=O)O)c(O)c2ccc(Oc3ccccc3)cc12 [FG-4592] + CC1(C)CCC(c2ccc(Cl)cc2)=C(CN2CCN(c3ccc(C(=O)NS(=O)(=O)c4ccc(N[C@H](CCN5CCOCC5)CSc5ccccc5)c(S(=O)(=O)C(F)(F)F)c4)cc3)CC2)C1 [Navitoclax] (partner 0.5 µM)
Summary of the method: as §1

[4] = compound: Cc1nc(C(=O)NCC(=O)O)c(O)c2ccc(Oc3ccccc3)cc12 [FG-4592] + C[C@]1(O)C[C@@H](c2nc(-c3ccc4ccc(-c5ccccc5)nc4c3)c3c(N)nccn32)C1 [Linsitinib] (partner 1 µM)
Summary of the method: as §1

Cell Line | relative viability ([1]; first compound 0.08 µM) | relative viability ([1]; first compound 0.253 µM) | relative viability ([1]; first compound 0.8 µM) | relative viability ([1]; first compound 2.53 µM) | relative viability ([1]; first compound 8 µM) | relative viability ([2]; first compound 0.08 µM) | relative viability ([2]; first compound 0.253 µM) | relative viability ([2]; first compound 0.8 µM) | relative viability ([2]; first compound 2.53 µM) | relative viability ([2]; first compound 8 µM) | relative viability ([3]; first compound 0.08 µM) | relative viability ([3]; first compound 0.253 µM) | relative viability ([3]; first compound 0.8 µM) | relative viability ([3]; first compound 2.53 µM) | relative viability ([3]; first compound 8 µM) | relative viability ([4]; first compound 0.08 µM) | relative viability ([4]; first compound 0.253 µM) | relative viability ([4]; first compound 0.8 µM) | relative viability ([4]; first compound 2.53 µM) | relative viability ([4]; first compound 8 µM)
HCC-366 | 1.07 | 0.934 | 1.17 | 0.692 | 1.27 | 0.298 | 0.283 | 0.378 | 0.453 | 0.342 | 1.07 | 0.903 | 1.12 | 1.1 | 1.04 | 0.443 | 0.571 | 0.551 | 0.693 | 0.517
HCC-827 | 0.944 | 0.895 | 0.85 | 0.889 | 0.543 | 0.966 | 1.08 | 1.02 | 0.879 | 0.558 | 1.03 | 1.01 | 0.992 | 1.02 | 1.09 | 1.02 | 0.895 | 0.984 | 0.975 | 0.945
HOP-62 | 0.918 | 0.93 | 0.901 | 0.771 | 0.712 | 0.693 | 0.675 | 0.752 | 0.433 | 0.532 | 1.04 | 1.01 | 1.2 | 0.983 | 1.03 | 0.947 | 1.03 | 0.921 | 1.03 | 0.931
IA-LM | – | – | – | – | – | 0.951 | 1.13 | 1.11 | 0.444 | 1.06 | 0.785 | 0.707 | 0.899 | 0.481 | 0.397 | 0.578 | 0.597 | 0.565 | 0.376 | 0.476
LC-2-ad | 0.86 | 0.81 | 0.75 | 0.546 | 0.787 | 0.736 | 0.736 | 0.71 | – | 0.715 | 0.489 | 0.465 | 0.329 | 0.458 | 0.503 | 0.81 | 0.757 | 0.878 | 0.816 | 0.911
LCLC-97TM1 | 0.62 | 0.551 | 0.531 | 0.583 | 0.513 | 0.919 | 0.869 | 0.82 | – | 0.571 | 0.396 | 0.489 | 0.306 | – | 0.496 | 0.179 | 0.191 | 0.17 | – | 0.183
LCLC-103H | 0.508 | 0.492 | 0.472 | 0.484 | 0.416 | 0.748 | 0.819 | 0.82 | 0.561 | 0.704 | – | – | – | – | – | 0.969 | 1.1 | 0.89 | 1.1 | 0.854
LK-2 | 0.219 | 0.199 | 0.184 | 0.188 | 0.184 | 0.21 | 0.195 | 0.175 | 0.331 | 0.274 | 0.87 | 0.771 | 0.734 | 0.836 | 0.674 | 0.434 | 0.615 | 0.383 | 0.662 | 0.424
NCI-H358 | 0.889 | 1.15 | 1.04 | 0.676 | 0.82 | 0.828 | 0.708 | 0.72 | 0.781 | 0.619 | – | – | – | – | – | 0.723 | 0.679 | 0.73 | 0.681 | 0.605
NCI-H522 | 0.751 | 0.592 | 0.56 | 0.572 | 0.619 | 0.95 | 0.903 | 0.884 | 0.695 | 0.851 | – | – | – | – | – | – | – | – | – | –
NCI-H650 | 0.507 | 0.55 | 0.487 | 0.482 | 0.441 | 0.61 | 0.562 | 0.451 | 0.37 | 0.483 | – | – | – | – | – | 0.884 | 0.704 | 0.669 | 0.724 | 0.631
NCI-H661 | 0.81 | 0.753 | 0.63 | 0.799 | 0.647 | 0.805 | 0.861 | 0.798 | 0.836 | 0.761 | – | – | – | – | – | 0.475 | 0.588 | 0.55 | 0.678 | 0.446
NCI-H1299 | – | – | – | – | – | – | – | – | – | – | 1.07 | 1.03 | 1.02 | 1.02 | 1.1 | 0.979 | 0.939 | 0.956 | 0.989 | 0.964
NCI-H1563 | 0.809 | 0.782 | 0.785 | 0.757 | 0.663 | – | – | – | – | – | – | – | – | – | – | 1.27 | 1.24 | 1.19 | 1.27 | 1.22
NCI-H1623 | 0.452 | 0.451 | 0.449 | 0.434 | 0.391 | – | – | – | – | – | – | – | – | – | – | – | – | – | – | –
NCI-H1648 | 0.264 | 0.295 | 0.251 | 0.266 | 0.277 | 0.455 | 0.402 | 0.999 | 0.265 | 0.399 | – | – | – | – | – | – | – | – | – | –
NCI-H1650 | 0.502 | 0.438 | 0.645 | 0.521 | 0.412 | 0.631 | 0.523 | 0.62 | 0.564 | 0.722 | 1.23 | 1.12 | 1.37 | 1.17 | 1.24 | – | – | – | – | –
NCI-H1703 | – | – | – | – | – | – | – | – | – | – | 1.01 | 0.862 | 1.16 | 1.13 | 1.02 | 0.837 | 0.55 | 0.679 | 0.755 | 0.617
NCI-H1792 | 0.816 | 0.771 | 0.879 | 0.566 | 0.691 | – | – | – | – | – | 0.619 | 0.554 | 0.575 | 0.611 | 0.644 | 0.522 | 0.411 | 0.487 | 0.577 | 0.567
NCI-H2170 | 0.865 | 0.725 | 0.645 | 0.722 | 0.727 | 0.997 | 0.973 | 0.921 | 0.748 | 0.747 | 0.708 | 0.593 | 0.691 | 0.485 | 0.322 | – | – | – | – | –
NCI-H2342 | 0.668 | 0.69 | 0.578 | 0.517 | 0.619 | 0.833 | 0.836 | 0.975 | 1.03 | 0.825 | – | – | – | – | – | – | – | – | – | –
SW 900 | 0.508 | 0.45 | 0.677 | 0.61 | 0.414 | 0.361 | – | 0.616 | 0.603 | 0.428 | – | – | – | – | – | – | – | – | – | –
